We go through three compounds from ChEMBL document CHEMBL5523698, “Design, synthesis, and biological evaluation of phenylcyclopropylamine-entinostat conjugates that selectively target cancer cells” (Bioorg Med Chem, 2024).

The test system of data set [1] is LN-18. The data set can be described thus: cells. As to conditions: Homo sapiens, LN-18, 72 h.
Description: Antiproliferative activity against human LN-18 cells incubated for 3 days by alamar blue assay
The subject of data set [2] is HL-60. The data set can be described thus: cells. The note with it: Homo sapiens, HL-60, 72 h.
Description: Antiproliferative activity against human HL-60 cells incubated for 3 days by alamar blue assay
Data set [3] relates to PC-3. As to the kind of experiment: cells. As to conditions: Homo sapiens, PC-3, 72 h.
Description: Antiproliferative activity against human PC-3 cells incubated for 3 days by alamar blue assay
Data set [4] can be described thus: in vitro. The note with it: human, PrEC cells.
Description: Cytotoxicity against human PrEC cells incubated for 3 days by alamar blue assay
Data set [5] has as its target T1, Lysine-specific histone demethylase 1A (Homo sapiens, UniProt O60341). The data set can be described thus: Drug metabolism assessed as LSD1 (unknown origin) mediated entinostat release. It is filed as ADME.
Data set [6] addresses T1, Lysine-specific histone demethylase 1A.
Description: Inhibition of human recombinant LSD1 using H3K4me2 peptide substrate preincubated for 15 mins followed by substrate addition and measured after 30 mins by fluorescence based assay
The target in data set [7] is T2, Histone deacetylase (Homo sapiens) (UniProt Q13547+O15379+Q9UBN7+Q92769+Q9UQL6+Q8WUI4+Q9BY41+Q96DB2+P56524+Q9UKV0+Q969S8). As to the kind of experiment: Inhibition of HDAC in human PC-3 cells assessed as H3K9 acetylation at 0.1 to 1 uM incubated for 24 hrs by Western blotting analysis. In kind it is cell-based. The note with it: dose 0.1-1 µM.
For data set [8], the target named is T1, Lysine-specific histone demethylase 1A. As to the kind of experiment: Potency index, ratio of PCPA IC50 to test compound IC50 for inhibition of human recombinant LSD1.
The target in data set [9] is T2, Histone deacetylase (Homo sapiens). As to the kind of experiment: Inhibition of HDAC in human PC-3 cells assessed as fold increase in acetylated H3K9 to H3 ratio at 0.3 uM incubated for 24 hrs by Western blotting analysis (reference value: 1). It is filed as cell-based.
In data set [10] the target is T1, Lysine-specific histone demethylase 1A. As to the kind of experiment: Inhibition of LSD1 in human PC-3 cells assessed as fold increase in H3K4me2 to H3 ratio at 0.3 uM incubated for 24 hrs by Western blotting analysis (reference value: 1). It is filed as cell-based.
The target is the same in data set [11]. As to the kind of experiment: Drug metabolism assessed as LSD1 (unknown origin) mediated entinostat release incubated for 24 hrs by HPLC analysis. In kind it is ADME.
Data set [12] addresses T2, Histone deacetylase (Homo sapiens). As to the kind of experiment: Inhibition of HDAC in human PC-3 cells assessed as fold increase in acetylated H3K9 to H3 ratio at 1 uM incubated for 24 hrs by Western blotting analysis (reference value: […]). It is filed as cell-based.
For data set [13], the target named is T1, Lysine-specific histone demethylase 1A. The data set can be described thus: Inhibition of LSD1 in human PC-3 cells assessed as increase in H3K4me2 level incubated for 24 hrs by Western blotting analysis. The note with it: dose 0.1-1 µM. In kind it is cell-based.
Data set [14] has as its target T2, Histone deacetylase (Homo sapiens). The data set can be described thus: Inhibition of HDAC in human PC-3 cells assessed as fold increase in acetylated H3K9 to H3 ratio at 0.1 uM incubated for 24 hrs by Western blotting analysis (reference value: […]). It is filed as cell-based.
For data set [15], the target named is T1, Lysine-specific histone demethylase 1A. The data set can be described thus: Inhibition of LSD1 in human PC-3 cells assessed as fold increase in H3K4me2 to H3 ratio at 0.1 uM incubated for 24 hrs by Western blotting analysis (reference value: 1). It is filed as cell-based.
Data set [16] shares this target. As to the kind of experiment: Inhibition of LSD1 in human PC-3 cells assessed as fold increase in H3K4me2 to H3 ratio at 1 uM incubated for 24 hrs by Western blotting analysis (reference value: 1). It is filed as cell-based.

The source made the active and inactive calls. The calls are words filed in the database; no cut-off is given here.

On to `Nc1ccccc1NC(=O)c1ccc(CNC(=O)OCc2cccnc2)cc1` [ENTINOSTAT], for which the GI50 in [1] was 0.917 µM; in data set [2], 0.214 µM; in data set [3], 0.087 µM. This compound also gave a 50% growth inhibitory concentration (GI50) at 72 h in [4] of 2.23 µM.
Take `CN(CCN(C)C1CC1c1ccccc1)C(=O)Nc1ccccc1NC(=O)c1ccc(CNC(=O)OCc2cccnc2)cc1` (stereo unspecified): in [5], the Drug metabolism result is “Metabolite_Notdetected”. Inhibition in data set [6] was half-maximal at 50.3 µM (IC50).
Consider `CN(CCN(C)C1CC1c1ccccc1)C(=O)Oc1ccc(COC(=O)Nc2ccccc2NC(=O)c2ccc(CNC(=O)OCc3cccnc3)cc2)cc1` (stereo unspecified), for which the GI50 in data set [1] was found to be 5.62 µM; in [2], 4.49 µM; in [3], 1.18 µM. The inhibition result in data set [7] was “Active”. Further, the Ratio IC50 in [8] amounted to 40. Moreover, the fold change (FC) in data set [9] amounted to 1.77; in data set [10], 1.49; in data set [12] it was 2.01; in data set [14] it was 1.48; in [15], 1.18; in [16] it was 1.58. The Drug metabolism result in data set [11] is given as “Metabolite_Detected”. The inhibition entry in [13] was “Dose-Dependent Effect”. The same compound displayed an IC50 in data set [6] of 0.626 µM. Further, in [4], the GI50 at 72 h was > 100 µM.
